Results reported in PubChem BioAssay (NCI).
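Results reflect a 48-hour exposure of cells in 96-well plates to compound at five concentrations. TGI: total growth inhibition.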 Where a SMILES comes first, the peptide text is derived from it. The star is where a group is joined. Cbz = O=C(OCc1ccccc1)*

Test system: 786-0 renal
Assay: NCI anticancer screen, dose series, 48 h

Structure (SMILES)	TGI [µM]
CC(NC(=O)C(NC(=O)OCc1ccccc1)C(C)C)C(=O)NCC(=O)O (stereo not drawn) (Cbz-Val-Ala-Gly-OH; configuration not given here)	> 100
[N-]=[N+]=CC(=O)OC1Cc2ccccc2C1	> 100
COc1ccc(/C=C2\c3cc(OC)c(OC)cc3CCN2C(=O)c2ccccc2)cc1OC	> 100
O=c1oc2c/c(=C\c3ccc([N+](=O)[O-])cc3)c(=O)c3cccc1c3-2	> 100
FC(F)(F)c1ccc2c(c1)nc(-c1ccc(Cl)cc1)n2CC1CCCN2CCCCC12 (stereo not drawn)	27
Nc1ccccc1N=Cc1cc2cc([N+](=O)[O-])ccc2s1	29.2
O=C(CNS(=O)(=O)Cc1ccccc1)NNc1ccccc1	> 100

Test system: A498 renal
Assay: NCI anticancer screen, dose series, 48 h

Structure (SMILES)	TGI [µM]
[N-]=[N+]=CC(=O)OC1Cc2ccccc2C1	> 100
COc1ccc(/C=C2\c3cc(OC)c(OC)cc3CCN2C(=O)c2ccccc2)cc1OC	> 100
FC(F)(F)c1ccc2c(c1)nc(-c1ccc(Cl)cc1)n2CC1CCCN2CCCCC12 (stereo not drawn)	27.5
Nc1ccccc1N=Cc1cc2cc([N+](=O)[O-])ccc2s1	32.5

Test system: A549 NSCLC
Assay: NCI anticancer screen, dose series, 48 h

Structure (SMILES)	TGI [µM]
CC(NC(=O)C(NC(=O)OCc1ccccc1)C(C)C)C(=O)NCC(=O)O (stereo not drawn) (Cbz-Val-Ala-Gly-OH; configuration not given here)	> 100
[N-]=[N+]=CC(=O)OC1Cc2ccccc2C1	> 100
COc1ccc(/C=C2\c3cc(OC)c(OC)cc3CCN2C(=O)c2ccccc2)cc1OC	> 100
O=c1oc2c/c(=C\c3ccc([N+](=O)[O-])cc3)c(=O)c3cccc1c3-2	> 100
FC(F)(F)c1ccc2c(c1)nc(-c1ccc(Cl)cc1)n2CC1CCCN2CCCCC12 (stereo not drawn)	29.5
Nc1ccccc1N=Cc1cc2cc([N+](=O)[O-])ccc2s1	30.9
O=C(CNS(=O)(=O)Cc1ccccc1)NNc1ccccc1	> 100

Test system: ACHN renal
Assay: NCI anticancer screen, dose series, 48 h

Structure (SMILES)	TGI [µM]
CC(NC(=O)C(NC(=O)OCc1ccccc1)C(C)C)C(=O)NCC(=O)O (stereo not drawn) (Cbz-Val-Ala-Gly-OH; configuration not given here)	> 100
[N-]=[N+]=CC(=O)OC1Cc2ccccc2C1	81.9
COc1ccc(/C=C2\c3cc(OC)c(OC)cc3CCN2C(=O)c2ccccc2)cc1OC	> 100
O=c1oc2c/c(=C\c3ccc([N+](=O)[O-])cc3)c(=O)c3cccc1c3-2	> 100
FC(F)(F)c1ccc2c(c1)nc(-c1ccc(Cl)cc1)n2CC1CCCN2CCCCC12 (stereo not drawn)	27.9
Nc1ccccc1N=Cc1cc2cc([N+](=O)[O-])ccc2s1	40.3
O=C(CNS(=O)(=O)Cc1ccccc1)NNc1ccccc1	> 100

Test system: BT-549 breast
Assay: NCI anticancer screen, dose series, 48 h

Structure (SMILES)	TGI [µM]
CC(NC(=O)C(NC(=O)OCc1ccccc1)C(C)C)C(=O)NCC(=O)O (stereo not drawn) (Cbz-Val-Ala-Gly-OH; configuration not given here)	> 100
[N-]=[N+]=CC(=O)OC1Cc2ccccc2C1	> 100
COc1ccc(/C=C2\c3cc(OC)c(OC)cc3CCN2C(=O)c2ccccc2)cc1OC	> 100
O=c1oc2c/c(=C\c3ccc([N+](=O)[O-])cc3)c(=O)c3cccc1c3-2	> 100
FC(F)(F)c1ccc2c(c1)nc(-c1ccc(Cl)cc1)n2CC1CCCN2CCCCC12 (stereo not drawn)	27.9
Nc1ccccc1N=Cc1cc2cc([N+](=O)[O-])ccc2s1	52.9
O=C(CNS(=O)(=O)Cc1ccccc1)NNc1ccccc1	> 100

Test system: CAKI-1 renal
Assay: NCI anticancer screen, dose series, 48 h

Structure (SMILES)	TGI [µM]
CC(NC(=O)C(NC(=O)OCc1ccccc1)C(C)C)C(=O)NCC(=O)O (stereo not drawn) (Cbz-Val-Ala-Gly-OH; configuration not given here)	> 100
[N-]=[N+]=CC(=O)OC1Cc2ccccc2C1	> 35.3
COc1ccc(/C=C2\c3cc(OC)c(OC)cc3CCN2C(=O)c2ccccc2)cc1OC	> 100
FC(F)(F)c1ccc2c(c1)nc(-c1ccc(Cl)cc1)n2CC1CCCN2CCCCC12 (stereo not drawn)	33.3
Nc1ccccc1N=Cc1cc2cc([N+](=O)[O-])ccc2s1	> 100
O=C(CNS(=O)(=O)Cc1ccccc1)NNc1ccccc1	> 100

Test system: CCRF-CEM leukemia
Assay: NCI anticancer screen, dose series, 48 h

Structure (SMILES)	TGI [µM]
[N-]=[N+]=CC(=O)OC1Cc2ccccc2C1	> 31.6
COc1ccc(/C=C2\c3cc(OC)c(OC)cc3CCN2C(=O)c2ccccc2)cc1OC	98.4
O=c1oc2c/c(=C\c3ccc([N+](=O)[O-])cc3)c(=O)c3cccc1c3-2	> 100
FC(F)(F)c1ccc2c(c1)nc(-c1ccc(Cl)cc1)n2CC1CCCN2CCCCC12 (stereo not drawn)	36
Nc1ccccc1N=Cc1cc2cc([N+](=O)[O-])ccc2s1	22.8
O=C(CNS(=O)(=O)Cc1ccccc1)NNc1ccccc1	> 100

Test system: COLO 205 colon
Assay: NCI anticancer screen, dose series, 48 h

Structure (SMILES)	TGI [µM]
CC(NC(=O)C(NC(=O)OCc1ccccc1)C(C)C)C(=O)NCC(=O)O (stereo not drawn) (Cbz-Val-Ala-Gly-OH; configuration not given here)	> 100
[N-]=[N+]=CC(=O)OC1Cc2ccccc2C1	> 100
COc1ccc(/C=C2\c3cc(OC)c(OC)cc3CCN2C(=O)c2ccccc2)cc1OC	> 100
O=c1oc2c/c(=C\c3ccc([N+](=O)[O-])cc3)c(=O)c3cccc1c3-2	> 100
FC(F)(F)c1ccc2c(c1)nc(-c1ccc(Cl)cc1)n2CC1CCCN2CCCCC12 (stereo not drawn)	24.4
Nc1ccccc1N=Cc1cc2cc([N+](=O)[O-])ccc2s1	45.5
O=C(CNS(=O)(=O)Cc1ccccc1)NNc1ccccc1	12.4

Test system: DU-145 prostate
Assay: NCI anticancer screen, dose series, 48 h

Structure (SMILES)	TGI [µM]
CC(NC(=O)C(NC(=O)OCc1ccccc1)C(C)C)C(=O)NCC(=O)O (stereo not drawn) (Cbz-Val-Ala-Gly-OH; configuration not given here)	> 100
[N-]=[N+]=CC(=O)OC1Cc2ccccc2C1	> 84.2
COc1ccc(/C=C2\c3cc(OC)c(OC)cc3CCN2C(=O)c2ccccc2)cc1OC	> 100
O=c1oc2c/c(=C\c3ccc([N+](=O)[O-])cc3)c(=O)c3cccc1c3-2	> 100
FC(F)(F)c1ccc2c(c1)nc(-c1ccc(Cl)cc1)n2CC1CCCN2CCCCC12 (stereo not drawn)	30.4
Nc1ccccc1N=Cc1cc2cc([N+](=O)[O-])ccc2s1	36.1
O=C(CNS(=O)(=O)Cc1ccccc1)NNc1ccccc1	> 100

Test system: EKVX NSCLC
Assay: NCI anticancer screen, dose series, 48 h

Structure (SMILES)	TGI [µM]
CC(NC(=O)C(NC(=O)OCc1ccccc1)C(C)C)C(=O)NCC(=O)O (stereo not drawn) (Cbz-Val-Ala-Gly-OH; configuration not given here)	> 100
[N-]=[N+]=CC(=O)OC1Cc2ccccc2C1	> 100
COc1ccc(/C=C2\c3cc(OC)c(OC)cc3CCN2C(=O)c2ccccc2)cc1OC	> 100
O=c1oc2c/c(=C\c3ccc([N+](=O)[O-])cc3)c(=O)c3cccc1c3-2	> 100
FC(F)(F)c1ccc2c(c1)nc(-c1ccc(Cl)cc1)n2CC1CCCN2CCCCC12 (stereo not drawn)	23.4
Nc1ccccc1N=Cc1cc2cc([N+](=O)[O-])ccc2s1	45.1
O=C(CNS(=O)(=O)Cc1ccccc1)NNc1ccccc1	> 100

Test system: HCC-2998 colon
Assay: NCI anticancer screen, dose series, 48 h

Structure (SMILES)	TGI [µM]
CC(NC(=O)C(NC(=O)OCc1ccccc1)C(C)C)C(=O)NCC(=O)O (stereo not drawn) (Cbz-Val-Ala-Gly-OH; configuration not given here)	> 100
[N-]=[N+]=CC(=O)OC1Cc2ccccc2C1	> 100
COc1ccc(/C=C2\c3cc(OC)c(OC)cc3CCN2C(=O)c2ccccc2)cc1OC	> 100
O=c1oc2c/c(=C\c3ccc([N+](=O)[O-])cc3)c(=O)c3cccc1c3-2	> 100
FC(F)(F)c1ccc2c(c1)nc(-c1ccc(Cl)cc1)n2CC1CCCN2CCCCC12 (stereo not drawn)	26.7
Nc1ccccc1N=Cc1cc2cc([N+](=O)[O-])ccc2s1	54.6
O=C(CNS(=O)(=O)Cc1ccccc1)NNc1ccccc1	> 100

Test system: HCT-116 colon
Assay: NCI anticancer screen, dose series, 48 h

Structure (SMILES)	TGI [µM]
CC(NC(=O)C(NC(=O)OCc1ccccc1)C(C)C)C(=O)NCC(=O)O (stereo not drawn) (Cbz-Val-Ala-Gly-OH; configuration not given here)	> 100
[N-]=[N+]=CC(=O)OC1Cc2ccccc2C1	> 100
COc1ccc(/C=C2\c3cc(OC)c(OC)cc3CCN2C(=O)c2ccccc2)cc1OC	> 100
O=c1oc2c/c(=C\c3ccc([N+](=O)[O-])cc3)c(=O)c3cccc1c3-2	> 100
FC(F)(F)c1ccc2c(c1)nc(-c1ccc(Cl)cc1)n2CC1CCCN2CCCCC12 (stereo not drawn)	27.4
Nc1ccccc1N=Cc1cc2cc([N+](=O)[O-])ccc2s1	> 100
O=C(CNS(=O)(=O)Cc1ccccc1)NNc1ccccc1	> 100

Test system: HCT-15 colon
Assay: NCI anticancer screen, dose series, 48 h

Structure (SMILES)	TGI [µM]
CC(NC(=O)C(NC(=O)OCc1ccccc1)C(C)C)C(=O)NCC(=O)O (stereo not drawn) (Cbz-Val-Ala-Gly-OH; configuration not given here)	> 100
[N-]=[N+]=CC(=O)OC1Cc2ccccc2C1	> 100
COc1ccc(/C=C2\c3cc(OC)c(OC)cc3CCN2C(=O)c2ccccc2)cc1OC	> 100
O=c1oc2c/c(=C\c3ccc([N+](=O)[O-])cc3)c(=O)c3cccc1c3-2	> 100
FC(F)(F)c1ccc2c(c1)nc(-c1ccc(Cl)cc1)n2CC1CCCN2CCCCC12 (stereo not drawn)	28.8
Nc1ccccc1N=Cc1cc2cc([N+](=O)[O-])ccc2s1	> 100
O=C(CNS(=O)(=O)Cc1ccccc1)NNc1ccccc1	> 100

Test system: HL-60(TB) leukemia
Assay: NCI anticancer screen, dose series, 48 h

Structure (SMILES)	TGI [µM]
[N-]=[N+]=CC(=O)OC1Cc2ccccc2C1	> 100
COc1ccc(/C=C2\c3cc(OC)c(OC)cc3CCN2C(=O)c2ccccc2)cc1OC	65
O=c1oc2c/c(=C\c3ccc([N+](=O)[O-])cc3)c(=O)c3cccc1c3-2	> 100
FC(F)(F)c1ccc2c(c1)nc(-c1ccc(Cl)cc1)n2CC1CCCN2CCCCC12 (stereo not drawn)	29.2
Nc1ccccc1N=Cc1cc2cc([N+](=O)[O-])ccc2s1	32
O=C(CNS(=O)(=O)Cc1ccccc1)NNc1ccccc1	> 100

Test system: HOP-62 NSCLC
Assay: NCI anticancer screen, dose series, 48 h

Structure (SMILES)	TGI [µM]
CC(NC(=O)C(NC(=O)OCc1ccccc1)C(C)C)C(=O)NCC(=O)O (stereo not drawn) (Cbz-Val-Ala-Gly-OH; configuration not given here)	> 100
[N-]=[N+]=CC(=O)OC1Cc2ccccc2C1	> 100
COc1ccc(/C=C2\c3cc(OC)c(OC)cc3CCN2C(=O)c2ccccc2)cc1OC	> 100
O=c1oc2c/c(=C\c3ccc([N+](=O)[O-])cc3)c(=O)c3cccc1c3-2	> 100
FC(F)(F)c1ccc2c(c1)nc(-c1ccc(Cl)cc1)n2CC1CCCN2CCCCC12 (stereo not drawn)	28.6
Nc1ccccc1N=Cc1cc2cc([N+](=O)[O-])ccc2s1	31.7
